Ten compounds from patent US20210355106A1, “NEW AMINO-PYRIMIDONYL-PIPERIDINYL DERIVATIVES, A PROCESS FOR THEIR PREPARATION AND PHARMACEUTICAL COMPOSITIONS CONTAINING THEM” (LES LABORATOIRES SERVIER, priority 2018, published 2021) can be followed below.

In one assay the target is T1, USP7 (Homo sapiens, UniProt Q93009, C315A).
T1 construct: 0.25 nM His-His-USP7 (aa208-560, |C315A|) was incubated with compound; His-His (N)
Briefly: Inhibition of USP7 by Fluorescence Intensity (FLINT) readings, Ubiquitin-Rhodamine-110 substrate. In kind it is biochemical. The note with it: 0.25 nM His-His-USP7 (aa208-560), 60 minutes at 30° C. preincubation; Ki determined from IC50 according to Cer et al. The procedure, abridged:
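His-tagged USP7 (aa208-560, C315A), 0.25 nM, preincubated with compound 60 min at 30 °C in 100 mM Bicine pH 8.0, 0.01% Triton X-100, 1 mM TCEP, 10% DMSO. Ubiquitin-Rhodamine-110 (50 nM or 4 μM) added; kinetic fluorescence (Ex 485/Em 535 nm) over 21 min; IC50 from 11-point curves, Ki derived from IC50.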

Assay [1] deals with Z138 mantle cell lymphoma tumour cell lines. Briefly: In vitro cytotoxicity, MTT assay. The class given is cell-based. The note with it: Homo sapiens, Z-138; Z138 cells, exposed to the test compounds for 96 hours. The procedure, abridged: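 Z138 cells exposed to compounds for 96 hours, then MTT added for 4 hours. Formazan absorbance at 540 nm serves as the measure of viable cell number.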

T1 sequence (Q93009 208-560 C315A): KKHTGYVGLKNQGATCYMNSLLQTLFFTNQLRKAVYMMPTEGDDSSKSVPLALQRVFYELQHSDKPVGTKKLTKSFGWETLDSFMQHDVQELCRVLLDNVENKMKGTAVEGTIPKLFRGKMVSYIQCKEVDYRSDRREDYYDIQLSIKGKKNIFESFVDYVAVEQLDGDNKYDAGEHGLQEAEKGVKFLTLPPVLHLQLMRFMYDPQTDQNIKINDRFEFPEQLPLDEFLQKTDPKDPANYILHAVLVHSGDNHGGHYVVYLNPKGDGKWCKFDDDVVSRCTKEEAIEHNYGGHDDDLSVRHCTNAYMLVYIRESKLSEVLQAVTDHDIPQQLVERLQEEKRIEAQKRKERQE

`Cc1ccnc(C(=O)N2CC[C@@H](C(=O)N3CCC(O)(Cn4cnc(Oc5ccc(F)cc5)c(N)c4=O)CC3)[C@H](c3ccccc3)C2)c1` [Example 94, 5-amino-6-(4-fluorophenoxy)-3-[[4-hydroxy-1-[(3R,4R)-1-(4-methylpyridine-2-carbonyl)-3-phenyl-piperidine-4-carbonyl]-4-piperidyl]methyl]pyrimidin-4-one] registered an inhibition constant Ki at USP7 of 30 nM. Moreover, the 50% inhibitory concentration (IC50) in assay [1] was 49 nM.
On the same counts, the results for `COc1cc(Cl)cc(Oc2ncn(CC3(O)CCN(C(=O)[C@@H]4CCN(C(=O)c5sc(-c6ccc(C)nc6)nc5C)C[C@H]4c4ccccc4)CC3)c(=O)c2N)c1` [Example 23, 5-amino-6-(3-chloro-5-methoxyphenoxy)-3-((4-hydroxy-1-((3R,4R)-1-[4-methyl-2-(6-methylpyridin-3-yl)-1,3-thiazole-5-carbonyl]-3-phenylpiperidine-4-carbonyl}piperidin-4-yl)methyl]pyrimidin-4(3/I)-one] are 7.46 nM and 2.77 nM.
On the same counts, the results for `Nc1c(Oc2ccc(F)cc2)ncn(CC2(O)CCN(C(=O)[C@@H]3CCN(S(=O)(=O)c4cccc(Br)c4)C[C@H]3c3ccccc3)CC2)c1=O` [Example 69, 5-amino-3-[[1-[(3R,4R)-1-(3-bromophenyl)sulfonyl-3-phenyl-piperidine-4-carbonyl]-4-hydroxy-4-piperidyl]methyl]-6-(4-fluorophenoxy)pyrimidin-4-one] are 18.1 nM and 21.7 nM.
On the same counts, the results for `Cc1nc(Cc2ccccc2)sc1C(=O)N1CC[C@@H](C(=O)N2CCC(O)(Cn3cnc(Oc4ccc(F)cc4)c(N)c3=O)CC2)[C@H](c2ccccc2)C1` [Example 61, 5-amine-3-({1-[(3R,4R)-1-(2-benzyl-4-methyl-1,3-thiazole-5-carbonyl)-3-phenylpiperidine-4-carbonyl]-4-hydroxypiperidin-4-yl)methyl)-6-(4-fluorophenoxy)pyrimidin-4(3H)-one] are 7.9 nM and 17 nM.
`Cc1nccc(CN2CC[C@@H](C(=O)N3CC[C@](O)(Cn4cnc(Oc5ccc(Cl)c(F)c5)c(N)c4=O)C(F)(F)C3)[C@H](c3ccccc3)C2)n1` [Example 147] returned a Ki on USP7 of 19 nM. Also, the IC50 in assay [1] amounted to 48.7 nM.
The like results for `COc1cc(Oc2ncn(C[C@@]3(O)CCN(C(=O)[C@@H]4CCN(Cc5nc(C)cc(C)n5)C[C@H]4c4ccccc4)CC3(F)F)c(=O)c2N)ccc1F` [Example 217] were, in that order, 42.6 nM and 23.1 nM.
Compound `Nc1c(Oc2ccc(F)cc2)ncn(CC2(O)CCN(C(=O)[C@@H]3CCN(Cc4cnccn4)C[C@H]3c3ccccc3)CC2)c1=O` [Example 63] yielded a Ki at USP7 of 12.4 nM. Also, the IC50 in assay [1] was 16.3 nM.
On the same counts, the results for `Cc1ccc(-c2nccc(CN3CC[C@@H](C(=O)N4CC[C@](O)(Cn5cnc(Oc6ccc(F)cc6)c(N)c5=O)C(F)(F)C4)[C@H](c4ccccc4)C3)n2)cn1` [Example 176, 5-amino-3-[[(4S)-3,3-difluoro-4-hydroxy-1-((3R,4R)-1-{[2-(6-methyl-3-pyridyl)pyrimidin-4-yl]methyl]-3-phenyl-piperidine-4-carbonyl]-4-piperidyl]methyl]-6-(4-fluorophenoxy)pyrimidin-4-one] are 3.2 nM and 1.52 nM.
Compound `COc1cc(Oc2ncn(C[C@@]3(O)CCN(C(=O)[C@@H]4CCN(Cc5cccnn5)C[C@H]4c4ccccc4)CC3(F)F)c(=O)c2N)ccc1F` [Example 214] yielded a Ki on USP7 of 48.3 nM. This compound also registered a half-maximal inhibitory concentration (IC50) in assay [1] of 31.3 nM.
On the same counts, the results for `Nc1c(Oc2ccc(F)cc2)ncn(CC2(O)CCN(C(=O)[C@@H]3CCN(C(=S)Nc4ccccc4)C[C@H]3c3ccccc3)CC2)c1=O` [Example 60] are 75.9 nM and 128 nM.
